Laboratory results published in publication PMC7616177, “From structure to clinic: Design of a muscarinic M1 receptor agonist with the potential to treat Alzheimer’s disease” (Cell, 2021).

Experiments:
[1] = target: T1, M1-receptor (Gq/11 protein-coupling) in cortical membranes (Mus musculus, UniProt P12657); test: [35S]-GTPγS binding / Gq/11 protein-coupling in mouse cortical membranes; assay type: biochemical
T1 construct: Wild-type or M1-KO mice ([Bradley et al., 2017]) (8-12 weeks) were humanely killed and cortical tissue was dissected on ice; from tissue; host or cells: mouse cortex membranes
T1 sequence (P12657 1-460): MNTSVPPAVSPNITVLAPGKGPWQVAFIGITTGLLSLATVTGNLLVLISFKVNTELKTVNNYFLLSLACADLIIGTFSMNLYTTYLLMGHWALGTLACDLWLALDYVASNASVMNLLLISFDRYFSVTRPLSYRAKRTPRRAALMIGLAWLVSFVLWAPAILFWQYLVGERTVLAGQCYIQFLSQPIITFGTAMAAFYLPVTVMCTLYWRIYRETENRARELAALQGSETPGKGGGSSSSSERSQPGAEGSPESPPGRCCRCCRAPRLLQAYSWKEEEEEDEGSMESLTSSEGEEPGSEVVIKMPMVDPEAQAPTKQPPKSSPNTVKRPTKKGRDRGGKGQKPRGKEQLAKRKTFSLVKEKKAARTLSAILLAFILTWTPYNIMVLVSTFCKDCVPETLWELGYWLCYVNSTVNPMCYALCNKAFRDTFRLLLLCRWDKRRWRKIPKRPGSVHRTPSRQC
Protocol: Wild-type or M1-KO mice ([Bradley et al., 2017]) (8-12 weeks) were humanely killed and cortical tissue was dissected on ice. Tissue was suspended in ice-cold buffer A (containing 0.9% (w/v) NaCl, 10 mM HEPES, 0.2% (w/v) EDTA, pH 7.4) and homogenized (4 ×5s bursts) using a Polytron homogenizer. The suspension was centrifuged at 200 xg for 5 min at 4°C using an Eppendorf 5810R bench-top centrifuge. Supernatants were collected and re-homogenized as above. The suspension was subsequently centrifuged for 20 min at 40,000 xg at 4°C using a Beckman Coulter Avanti JXN-26 centrifuge with a JA-25.25 rotor. Supernatant was discarded, and the pellet was re-suspended in 10 mL ice-cold buffer B (10 mM HEPES, 10 mM EDTA, pH 7.4). The pellet was homogenized, GTP (1 mM final) was added and the suspension was incubated at 37° C for 15 min. The suspension was subsequently centrifuged for 20 min at 40,000 xg at 4°C and the pellet was re-suspended in 15 mL ice-cold buffer C (10 mM HEPES, 0.1 mM EDTA, pH 7.4) and re-homogenized as before. Suspension was centrifuged again for 20 min at 40,000 xg at 4°C. The final pellet was re-suspended in buffer C and protein concentration was estimated using a Bradford assay and this resuspended homogenate further diluted in buffer C to produce a concentration of 2 mg/mL. This preparation is the membrane preparation used in the [^35S]-GTPγS binding assay described below.
[^35S]-GTPγS binding and immunoprecipitation of Gα subunits was performed as previously described ([Bradley et al., 2017]). Specifically, wild-type or M1-KO membranes were diluted in assay buffer (in mM: HEPES, 10; NaCI, 100; MgCl2, 10; pH 7.4) containing a final concentration of 1 μM GDP. Membranes (75 μg in a total assay volume of […]) were added to [^35S]-GTPγS (1 μM final concentration) and agonists (CCh or CNO) and incubated at 30°C for 5 min. Reactions were terminated by the addition of 1 mL ice-cold assay buffer and immediate transfer to an ice bath. […] Recovered beads were then mixed with 1 mL FloScint-IV scintillation cocktail and counted by liquid scintillation spectrometry.

CA1 pyramidal cells = test: Electrophysiological recordings in rat hippocampal slices; assay type: cell-based; settings: read-out: Spontaneous firing rate of CA1 pyramidal cells EC50
rats = test: Modified Irwin Functional Observation Battery; assay type: in vivo; settings: rat
[2] = Modified Irwin Functional Observation Battery; assay type: in vivo; settings: plasma; rat, 100 mg/kg oral
M4-receptor = target: T2, M4-receptor (Homo sapiens, UniProt P08173); test: M4-receptor functional agonist assay; assay type: cell-based; design: expressed in transfected cells
T2 sequence (P08173 1-479): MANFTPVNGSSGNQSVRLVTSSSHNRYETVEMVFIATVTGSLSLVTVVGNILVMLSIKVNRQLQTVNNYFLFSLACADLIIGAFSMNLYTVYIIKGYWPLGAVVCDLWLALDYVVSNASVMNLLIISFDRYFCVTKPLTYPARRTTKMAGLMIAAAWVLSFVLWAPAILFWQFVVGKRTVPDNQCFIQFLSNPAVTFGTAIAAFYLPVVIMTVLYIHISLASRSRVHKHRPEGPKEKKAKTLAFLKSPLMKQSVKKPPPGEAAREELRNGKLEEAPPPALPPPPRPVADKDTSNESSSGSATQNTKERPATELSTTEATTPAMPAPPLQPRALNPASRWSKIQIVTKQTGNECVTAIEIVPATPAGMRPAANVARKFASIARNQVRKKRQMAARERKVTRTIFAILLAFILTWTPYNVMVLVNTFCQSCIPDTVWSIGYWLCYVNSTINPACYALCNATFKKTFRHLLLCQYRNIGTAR
Protocol: Functional assays were performed using the Alphascreen Surefire phopho-ERK1/2 assay. […] Once adhered, cells were serum starved overnight. Agonist stimulation was performed by the addition of […] agonist to the cells for a pre-optimized 5 min period (37°C). Media was removed and 50 μl of lysis buffer added. After 15 min a 4 μl sample was transferred to a 384-well plate and 7 μl of detection mixture added.

[3] = Rat CNS distribution and estimated unbound brain exposure; assay type: in vivo

## CCOC(=O)N1CCC[C@H](N2CCC(C(=O)NC3(C)CCC3)CC2)CC1 [HTL9936, ethyl (S)-4-(4-((1-methylcyclobutyl)carbamoyl)piperidin-1-yl)azepane-1-carboxylate]
[1]
  EC50: 2500 nM
[1]; cortical membranes, wild-type mice, n = 3
  Gq/11 protein-coupling Emax: 76 % of the oxotremorine-M response
[1]; membranes from M1-receptor KO animals
  Gq/11 protein-coupling in M1-receptor KO membranes: absent
CA1 pyramidal cells
  EC50: 1600 nM
rats; 100 mg/kg oral
  Cu,pl: 11,994 nM
rats; oral dosing up to 100 mg/kg
  Seizure-like effects: complete absence of seizure-like effects
[2]
  Cmax: 6400 ng/mL
M4-receptor
  EC50: 398 nM
  M4-receptor agonist activity: partial agonist activity
[3]; 1 mg/kg intravenous and 10 mg/kg oral
  Distribution into the CNS: significant distribution into the CNS
[3]; 3 mg/kg p.o.
  Estimated unbound drug in the brain Cu,br: 79 nM
[3]; 10 mg/kg p.o.
  Estimated unbound drug in the brain Cu,br: 262 nM
[3]; 30 mg/kg p.o.
  Estimated unbound drug in the brain Cu,br: 786 nM
